From ChEMBL document CHEMBL3046948, “Synthesis and SAR investigation of natural phenylpropene-derived methoxylated cinnamaldehydes and their novel Schiff bases as potent antimicrobial and antioxidant agents” (2013)
In brackets after ≈: the same amount, converted by molar mass. Activity calls are given as the source filed them. The rule behind the calls is not given here.

Key:
Assay type in all cases: functional
Aspergillus sydowii = test: Antimicrobial activity against Aspergillus sydowii MTCC 4335 assessed as growth inhibition after 5 days by broth microdilution method
Burkholderia cepacia = test: Antimicrobial activity against Burkholderia cepacia MTCC 438 assessed as growth inhibition after 24 hr by broth microdilution method
Micrococcus luteus = test: Antimicrobial activity against Micrococcus luteus MTCC 2470 assessed as growth inhibition after 24 hr by broth microdilution method
Klebsiella pneumoniae = test: Antimicrobial activity against Klebsiella pneumoniae MTCC 109 assessed as growth inhibition after 24 hr by broth microdilution method
[1] = system: Radical scavenging activity; test: Antioxidant activity assessed as inhibition of DPPH radical formation at 2 mg/ml after 30 min by spectrophotometric analysis
Aspergillus parasiticus = test: Antimicrobial activity against Aspergillus parasiticus MTCC 2797 assessed as growth inhibition after 5 days by broth microdilution method
Staphylococcus aureus = test: Antimicrobial activity against Staphylococcus aureus MTCC 3160 assessed as growth inhibition after 24 hr by broth microdilution method
Enterobacter cloacae = test: Antimicrobial activity against Enterobacter cloacae MTCC 509 assessed as growth inhibition after 24 hr by broth microdilution method
Pseudomonas aeruginosa = test: Antimicrobial activity against Pseudomonas aeruginosa MTCC 424 assessed as growth inhibition after 24 hr by broth microdilution method
Aspergillus niger = test: Antimicrobial activity against Aspergillus niger MTCC 404 assessed as growth inhibition after 5 days by broth microdilution method
Escherichia coli = test: Antimicrobial activity against Escherichia coli MTCC 43 assessed as growth inhibition after 24 hr by broth microdilution method
Candida albicans = test: Antimicrobial activity against Candida albicans MTCC 3017 assessed as growth inhibition after 24 hr by broth microdilution method
Pichia kudriavzevii = test: Antimicrobial activity against Pichia kudriavzevii MTCC 231 assessed as growth inhibition after 24 hr by broth microdilution method
Trichophyton rubrum = test: Antimicrobial activity against Trichophyton rubrum MTCC 296 assessed as growth inhibition after 5 days by broth microdilution method
Bacillus subtilis = test: Antimicrobial activity against Bacillus subtilis MTCC 121 assessed as growth inhibition after 24 hr by broth microdilution method

Row | Structure (SMILES) | MIC (Aspergillus sydowii; MTCC 4335, 120 h) [µM] | MIC (Burkholderia cepacia; MTCC 438, 24 h) [µM] | MIC (Micrococcus luteus; MTCC 2470, 24 h) [µM] | MIC (Klebsiella pneumoniae) | inhibition [1] [%] | MIC (Aspergillus parasiticus; MTCC 2797, 120 h) [µM] | MIC (Staphylococcus aureus; MTCC 3160, 24 h) [µM] | MIC (Enterobacter cloacae) | MIC (Pseudomonas aeruginosa) | MIC (Aspergillus niger) | MIC (Escherichia coli) | MIC (Candida albicans; MTCC 3017, 24 h) [µM] | MIC (Pichia kudriavzevii; MTCC 231, 24 h) [µM] | MIC (Trichophyton rubrum; MTCC 296, 120 h) [µM] | MIC (Bacillus subtilis; MTCC 121, 24 h) [µM] | MIC (Aspergillus sydowii) | MIC (Aspergillus parasiticus) | MIC (Enterobacter cloacae; MTCC 509, 24 h) [µM] | MIC (Klebsiella pneumoniae; MTCC 109, 24 h) [µM] | MIC (Escherichia coli; MTCC 43, 24 h) [µM] | also measured
1 | CCOc1ccc2nc(/N=C/C=C/c3ccc4c(c3)OCO4)sc2c1 | 710 (≈ 250 µg/mL) | 1420 (≈ 500 µg/mL) | 710 (≈ 250 µg/mL) | inactive | 0.24 | 710 (≈ 250 µg/mL) | 710 (≈ 250 µg/mL) | inactive | inactive | inactive | inactive | 1420 (≈ 500 µg/mL) | 1420 (≈ 500 µg/mL) | 1420 (≈ 500 µg/mL) | 1420 (≈ 500 µg/mL) | – | – | – | – | – | –
2 | CC(=O)c1ccc(/N=C/C=C/c2ccc3c(c2)OCO3)cc1 | 850 (≈ 249 µg/mL) | 1700 (≈ 499 µg/mL) | 850 (≈ 249 µg/mL) | inactive | 4.49 | 1700 (≈ 499 µg/mL) | 850 (≈ 249 µg/mL) | inactive | inactive | – | inactive | 1700 (≈ 499 µg/mL) | 1700 (≈ 499 µg/mL) | 1700 (≈ 499 µg/mL) | 850 (≈ 249 µg/mL) | – | – | – | – | – | MIC (Aspergillus niger; MTCC 404, 120 h): 1700 µM (≈ 499 µg/mL)
3 | COc1ccc(/N=C/C=C/c2ccc3c(c2)OCO3)cc1OC | 3210 (≈ 999 µg/mL) | – | – | inactive | 15.4 | 1600 (≈ 498 µg/mL) | – | inactive | inactive | inactive | inactive | – | – | – | – | – | – | – | – | – | MIC (Burkholderia cepacia): inactive; MIC (Micrococcus luteus): inactive; MIC (Staphylococcus aureus): inactive; MIC (Candida albicans): inactive; MIC (Pichia kudriavzevii): inactive; MIC (Trichophyton rubrum): inactive; MIC (Bacillus subtilis): inactive
4 | Cc1ccc2nc(/N=C/C=C/c3ccc4c(c3)OCO4)sc2c1 | – | 770 (≈ 248 µg/mL) | 770 (≈ 248 µg/mL) | inactive | 3.19 | – | 380 (≈ 123 µg/mL) | – | inactive | inactive | inactive | 770 (≈ 248 µg/mL) | 770 (≈ 248 µg/mL) | 770 (≈ 248 µg/mL) | 770 (≈ 248 µg/mL) | inactive | inactive | 770 (≈ 248 µg/mL) | – | – | –
5 | C(=C\c1ccc2c(c1)OCO2)/C=N/c1nc2ccccc2s1 | – | 810 (≈ 250 µg/mL) | 200 (≈ 61.7 µg/mL) | – | 3.55 | – | 200 (≈ 61.7 µg/mL) | – | – | inactive | – | 810 (≈ 250 µg/mL) | 1620 (≈ 500 µg/mL) | 810 (≈ 250 µg/mL) | 400 (≈ 123 µg/mL) | inactive | inactive | 810 (≈ 250 µg/mL) | 810 (≈ 250 µg/mL) | 810 (≈ 250 µg/mL) | MIC (Pseudomonas aeruginosa; MTCC 424, 24 h): 810 µM (≈ 250 µg/mL)
6 | C(=C\c1nc2ccccc2[nH]1)/c1ccc2c(c1)OCO2 | 1900 (≈ 502 µg/mL) | 470 (≈ 124 µg/mL) | 1900 (≈ 502 µg/mL) | – | 32.6 | 1900 (≈ 502 µg/mL) | 1900 (≈ 502 µg/mL) | – | – | – | – | 470 (≈ 124 µg/mL) | 470 (≈ 124 µg/mL) | 470 (≈ 124 µg/mL) | 3780 (≈ 999 µg/mL) | – | – | 950 (≈ 251 µg/mL) | 1900 (≈ 502 µg/mL) | 1900 (≈ 502 µg/mL) | MIC (Pseudomonas aeruginosa; MTCC 424, 24 h): 10 µM (≈ 2.64 µg/mL); MIC (Aspergillus niger; MTCC 404, 120 h): 950 µM (≈ 251 µg/mL)
7 | O=C/C=C/c1ccc2c(c1)OCO2 | 350 (≈ 61.7 µg/mL) | 710 (≈ 125 µg/mL) | 2840 (≈ 500 µg/mL) | – | – | 710 (≈ 125 µg/mL) | 2840 (≈ 500 µg/mL) | – | – | – | – | 350 (≈ 61.7 µg/mL) | 350 (≈ 61.7 µg/mL) | 350 (≈ 61.7 µg/mL) | 2840 (≈ 500 µg/mL) | – | – | 1420 (≈ 250 µg/mL) | 1420 (≈ 250 µg/mL) | 2840 (≈ 500 µg/mL) | MIC (Pseudomonas aeruginosa; MTCC 424, 24 h): 350 µM (≈ 61.7 µg/mL); MIC (Aspergillus niger; MTCC 404, 120 h): 1420 µM (≈ 250 µg/mL)
8 | C(=C\c1ccc2c(c1)OCO2)/C=N/c1nccs1 | 1930 (≈ 499 µg/mL) | 1930 (≈ 499 µg/mL) | 970 (≈ 251 µg/mL) | – | 3.91 | 3870 (≈ 1000 µg/mL) | 480 (≈ 124 µg/mL) | – | inactive | – | – | 970 (≈ 251 µg/mL) | 970 (≈ 251 µg/mL) | 970 (≈ 251 µg/mL) | 120 (≈ 31 µg/mL) | – | – | 480 (≈ 124 µg/mL) | 970 (≈ 251 µg/mL) | 970 (≈ 251 µg/mL) | MIC (Aspergillus niger; MTCC 404, 120 h): 3870 µM (≈ 1000 µg/mL)
9 | C(=C\c1ccc2c(c1)OCO2)/C=N/c1ccccc1 | 1990 (≈ 500 µg/mL) | 490 (≈ 123 µg/mL) | 990 (≈ 249 µg/mL) | – | 25.8 | 1990 (≈ 500 µg/mL) | 1990 (≈ 500 µg/mL) | – | – | – | – | 990 (≈ 249 µg/mL) | 490 (≈ 123 µg/mL) | 990 (≈ 249 µg/mL) | 1990 (≈ 500 µg/mL) | – | – | 990 (≈ 249 µg/mL) | 990 (≈ 249 µg/mL) | 1990 (≈ 500 µg/mL) | MIC (Pseudomonas aeruginosa; MTCC 424, 24 h): 250 µM (≈ 62.8 µg/mL); MIC (Aspergillus niger; MTCC 404, 120 h): 990 µM (≈ 249 µg/mL)
10 | CN(C)c1ccc(/C=C/C=O)cc1 | – | – | 11400 (≈ 2000 µg/mL) | inactive | – | – | – | – | inactive | inactive | inactive | – | – | – | – | inactive | inactive | 11400 (≈ 2000 µg/mL) | – | – | MIC (Burkholderia cepacia): inactive; MIC (Staphylococcus aureus): inactive; MIC (Candida albicans): inactive; MIC (Pichia kudriavzevii): inactive; MIC (Trichophyton rubrum): inactive; MIC (Bacillus subtilis): inactive
11 | NC(=S)N/N=C/C=C/c1ccc2c(c1)OCO2 | – | – | – | inactive | 10.7 | – | – | inactive | inactive | inactive | inactive | – | – | – | – | inactive | inactive | – | – | – | MIC (Burkholderia cepacia): inactive; MIC (Micrococcus luteus): inactive; MIC (Staphylococcus aureus): inactive; MIC (Candida albicans): inactive; MIC (Pichia kudriavzevii): inactive; MIC (Trichophyton rubrum): inactive; MIC (Bacillus subtilis): inactive
12 | Cc1cc(C(C)(C)C)c(O)c(C(C)(C)C)c1 | – | – | – | – | 91.6 | – | – | – | – | – | – | – | – | – | – | – | – | – | – | – | –
13 | COc1ccc(/C=C/C=O)c(Br)c1OC | – | – | – | inactive | – | – | – | inactive | inactive | inactive | inactive | – | – | – | – | inactive | inactive | – | – | – | MIC (Burkholderia cepacia): inactive; MIC (Micrococcus luteus): inactive; MIC (Staphylococcus aureus): inactive; MIC (Candida albicans): inactive; MIC (Pichia kudriavzevii): inactive; MIC (Trichophyton rubrum): inactive; MIC (Bacillus subtilis): inactive
14 | O=CCCc1ccccc1 [DIHYDROCINNAMALDEHYDE] | 3720 (≈ 499 µg/mL) | 14900 (≈ 2000 µg/mL) | 7450 (≈ 1000 µg/mL) | – | – | 14900 (≈ 2000 µg/mL) | 14900 (≈ 2000 µg/mL) | – | – | – | – | 3720 (≈ 499 µg/mL) | 3720 (≈ 499 µg/mL) | 3720 (≈ 499 µg/mL) | 7450 (≈ 1000 µg/mL) | – | – | 7450 (≈ 1000 µg/mL) | 7450 (≈ 1000 µg/mL) | 7450 (≈ 1000 µg/mL) | MIC (Pseudomonas aeruginosa; MTCC 424, 24 h): 7450 µM (≈ 1000 µg/mL); MIC (Aspergillus niger; MTCC 404, 120 h): 7450 µM (≈ 1000 µg/mL)
15 | Clc1ccc2nc(/N=C/C=C/c3ccc4c(c3)OCO4)sc2c1 | – | 730 (≈ 250 µg/mL) | 730 (≈ 250 µg/mL) | inactive | 80.7 | – | 730 (≈ 250 µg/mL) | inactive | inactive | inactive | inactive | 730 (≈ 250 µg/mL) | 730 (≈ 250 µg/mL) | 730 (≈ 250 µg/mL) | 730 (≈ 250 µg/mL) | inactive | inactive | – | – | – | –
16 | NC(=O)N/N=C/C=C/c1ccc2c(c1)OCO2 | – | – | – | inactive | 2.37 | – | – | inactive | inactive | inactive | inactive | 8570 (≈ 2000 µg/mL) | 8570 (≈ 2000 µg/mL) | 8570 (≈ 2000 µg/mL) | – | inactive | inactive | – | – | – | MIC (Burkholderia cepacia): inactive; MIC (Micrococcus luteus): inactive; MIC (Staphylococcus aureus): inactive; MIC (Bacillus subtilis): inactive
17 | CC(C)OC(=O)/C=C/c1ccccc1 | – | – | – | inactive | – | – | – | inactive | inactive | inactive | inactive | – | – | – | – | inactive | inactive | – | – | – | MIC (Burkholderia cepacia): inactive; MIC (Micrococcus luteus): inactive; MIC (Staphylococcus aureus): inactive; MIC (Candida albicans): inactive; MIC (Pichia kudriavzevii): inactive; MIC (Trichophyton rubrum): inactive; MIC (Bacillus subtilis): inactive
18 | Cc1ccc(/C=C/C=O)c([N+](=O)[O-])c1 | – | 2610 (≈ 499 µg/mL) | 2610 (≈ 499 µg/mL) | – | – | – | 10500 (≈ 2000 µg/mL) | – | – | inactive | – | – | – | – | 2610 (≈ 499 µg/mL) | inactive | inactive | 10500 (≈ 2000 µg/mL) | 10500 (≈ 2000 µg/mL) | 2610 (≈ 499 µg/mL) | MIC (Pseudomonas aeruginosa; MTCC 424, 24 h): 2610 µM (≈ 499 µg/mL); MIC (Candida albicans): inactive; MIC (Pichia kudriavzevii): inactive; MIC (Trichophyton rubrum): inactive
